For series [1], the system named is Mus musculus. Nature of the series: Antiseizure activity in PTZ-induced male CD-1 mouse clonic seizure model assessed as increase in latency time by measuring fold change at 15 mg/kg, ip pretreated with compound followed by PTZ-induction. Type of series: functional.
The subject of series [2] is Mus musculus. Nature of the series: Antiseizure activity in PTZ-induced male CD-1 mouse clonic seizure model assessed as improvement in locomotor activity by measuring fold change at 15 mg/kg, ip pretreated with compound followed by PTZ-induction by open field test. Format: functional.
Series [3] has as its system Mus musculus. Description: Antiseizure activity in PTZ-induced male CD-1 mouse clonic seizure model assessed as increase in latency time at 15 mg/kg, ip pretreated with compound followed by PTZ-induction. Format: functional.
The test system of series [4] is Mus musculus. Nature of the series: Antiseizure activity in PTZ-induced male CD-1 mouse clonic seizure model assessed as improvement in locomotor activity by measuring total events at 15 mg/kg, ip pretreated with compound followed by PTZ-induction by open field test. Format: functional.
The subject of series [5] is Mus musculus. Description: Antiseizure activity in PTZ-induced male CD-1 mouse clonic seizure model assessed as increase in latency time by measuring fold change at 12 mg/kg, ip pretreated with compound followed by PTZ-induction. Format: functional.
Series [6] relates to Mus musculus. Nature of the series: Antiseizure activity in PTZ-induced male CD-1 mouse clonic seizure model assessed as increase in latency time at 12 mg/kg, ip pretreated with compound followed by PTZ-induction. Type of series: functional.
For series [7], the system named is Mus musculus. Nature of the series: Antiseizure activity in PTZ-induced male CD-1 mouse clonic seizure model assessed as improvement in locomotor activity by measuring fold change at 12 mg/kg, ip pretreated with compound followed by PTZ-induction. Format: functional.
In series [8] the test system is Mus musculus. Description: Antiseizure activity in PTZ-induced male CD-1 mouse clonic seizure model assessed as improvement in locomotor activity by measuring total events at 12 mg/kg, ip pretreated with compound followed by PTZ-induction by open field test. Type of series: functional.
Series [9] can be described thus: Toxicity in male CD-1 mouse assessed as sedation at 12 to 13 mg/kg, ip. Format: organism-based. Particulars: in vivo, dose 12-13 mg/kg.
Series [10] is described as follows: Toxicity in male CD-1 mouse assessed as piloerection at 12 to 13 mg/kg, ip. Particulars: in vivo, dose 12-13 mg/kg. Format: organism-based.
The nature of series [11]: Toxicity in male CD-1 mouse assessed as stimulation of appetite at 12 to 13 mg/kg, ip. Type of series: organism-based. The note with it: in vivo, dose 12-13 mg/kg.
The test system of series [12] is Mus musculus. Nature of the series: Antiseizure activity in PTZ-induced male CD-1 mouse clonic seizure model assessed as increase in latency time by measuring fold change at 13 mg/kg, ip pretreated with compound followed by PTZ-induction. Type of series: functional.
Series [13] has as its system Mus musculus. Nature of the series: Antiseizure activity in PTZ-induced male CD-1 mouse clonic seizure model assessed as increase in latency time at 13 mg/kg, ip pretreated with compound followed by PTZ-induction. Type of series: functional.
Series [14] deals with Mus musculus. Nature of the series: Antiseizure activity in PTZ-induced male CD-1 mouse clonic seizure model assessed as improvement in locomotor activity by measuring fold change at 13 mg/kg, ip pretreated with compound followed by PTZ-induction. Format: functional.
Series [15] concerns Mus musculus. Nature of the series: Antiseizure activity in PTZ-induced male CD-1 mouse clonic seizure model assessed as improvement in locomotor activity by measuring total events at 13 mg/kg, ip pretreated with compound followed by PTZ-induction by open field test. Format: functional.

With `Cc1c(C(=O)c2cccc3ccccc23)c2cccc3c2n1C(CN1CCOCC1)CO3` (stereo not given), the “fold change (FC)” value with Mus musculus [1] was ~4; in the series with Mus musculus [2] it was 3. For the same compound, the Time with Mus musculus [3] amounted to 279 s. In addition, in the series with Mus musculus [4], the Activity was found to be 3079.

Turning to `CC1=C(C)C[C@]2(C(=O)c3ccccc3)C(=O)Oc3ccccc3[C@@H]2C1`, the “fold change (FC)” value in the series on Mus musculus [5] is listed as ~4; with Mus musculus [7] it was 2.4. The Time with Mus musculus [6] came out at 264 s. Besides, the Activity with Mus musculus [8] is recorded as 2747; in series [9] it was “Toxic”; in series [10] it was “Toxic”; in series [11], “Toxic”.

Turning to `CC1=C(C)C[C@]2(C(=O)c3ccc(C)cc3)C(=O)Oc3ccccc3[C@@H]2C1`, the “fold change (FC)” value with Mus musculus [5] is ~4; in the series with Mus musculus [7], 2.4. Besides, in the series on Mus musculus [6], the Time worked out at 269 s. For the same compound, the Activity in the series with Mus musculus [8] is reported as 2876; in series [9], “Toxic”; in [10] it was “Toxic”; in [11], “Toxic”.

Turning to `CC1=C(C)C[C@]2(C(=O)c3ccc(Cl)cc3)C(=O)Oc3ccccc3[C@@H]2C1`, the “fold change (FC)” value was ~4 in the series on Mus musculus [12] and 2.4 in the series with Mus musculus [14]. Further, the Time with Mus musculus [13] is on record as 266 s. Further, the Activity was 2790 in the series with Mus musculus [15], “Toxic” in series [9], “Toxic” in [10] and “Toxic” in series [11].
